Assay results reported in patent US20180140579A1, “SACUBITRIL AND VALSARTAN FOR TREATING METABOLIC DISEASE” (NOVARTIS AG, priority 2015, published 2018).
“And” between values parts separate entries of the source, which are not always exact repeats. Equal entries are not always repeated.

Columns and labels:
[1] = system: patients with mild-to-moderate hypertension and abdominal adiposity; assay: Energy expenditure and substrate oxidation by indirect calorimetry; assay type: in vivo, human; conditions: LCZ696 400 mg QD or amlodipine 10 mg QD; for Respiratory quotient (carbon dioxide to oxygen ratio), Day 57 adjusted mean (95% CI): Day 57, at rest
Description: (§1) At baseline and week 8, peripheral insulin sensitivity (hyperinsulinemic-euglycemic glucose clamp), abdominal subcutaneous adipose tissue lipolysis (microdialysis), whole-body lipolysis (glycerol tracer kinetics), energy expenditure and substrate oxidation (indirect calorimetry) were determined.
Energy expenditure and substrate oxidation were assessed in parallel by indirect calorimetry using a ventilated hood system. The ventilated hood measurements were recorded for 30 minutes in the resting state (during the flow calibration phase).

[2] = system: patients with mild-to-moderate hypertension and abdominal adiposity; assay: Hyperinsulinemic-euglycemic glucose clamp (insulin sensitivity), clinical study NCT01631864; assay type: in vivo, human; conditions: for Glucose infusion rate by body weight (Mbw), Day 56, adjusted mean / Insulin sensitivity index, Day 56, adjusted mean: Day 56 (week 8)
Description: as §1
Patients were also stratified into 4 groups based on the baseline Homeostasis Model Assessment of Insulin Resistance (HOMA-IR) (<2.5 and ≥2.5) and use of statin therapy within 8 weeks prior to randomization.
The HEGC assessment was performed on Day −1 (baseline) and on Day 56 under fasting conditions. A dorsal hand vein was catheterized and kept warm for arterialized blood sampling and the contralateral arm was cathetered for the infusion of glucose and insulin. […] Blood samples to determine glucose levels during the HEGC were collected continuously (automated clamp) or at approximately 5-min intervals (manual clamp). The last 30 minutes (minutes 90-120) of the clamp were considered as the steady state period and the mean glucose infusion rate was calculated for this time period.
The insulin sensitivity index (SI) was calculated from steady-state glucose infusion rates, and plasma insulin and glucose concentrations at steady-state (SI: Glucose infusion rate/[plasma glucose×plasma insulin], μg/kg*min/[mmol/L*pmol/L]). Furthermore whole-body glucose disposal rate (M, mg/min) was calculated from the mean glucose infusion rate at steady state to assess peripheral insulin sensitivity. Finally, the metabolic clearance rate (MCR) was calculated from M-value and the mean blood glucose concentration (BG) at steady-state (MCR: M/BG, min*mmol). The glucose disposal rate was also expressed per unit of insulin at steady-state, calculated from M-value and plasma insulin concentrations (M/l, U/min).
Differences between treatments for change in SI from baseline were analyzed as above.

[3] = system: patients with mild-to-moderate hypertension and abdominal adiposity; assay: Abdominal subcutaneous adipose tissue microdialysis (local lipolysis); assay type: in vivo, human
[4] = system: patients with mild-to-moderate hypertension and abdominal adiposity; assay: Blood pressure monitoring (mean seated BP); assay type: in vivo, human; conditions: Day 57 vs baseline; LCZ696 400 mg QD or amlodipine 10 mg QD
Description: Seating BP was monitored at screening and throughout the study using the same equipment. During the home stay period, patients were given a home measurement device and instructed to monitor BP twice weekly at approximately the same time each morning (7-9 AM).

[5] = system: patients with mild-to-moderate hypertension and abdominal adiposity; assay: Abdominal subcutaneous adipose tissue microdialysis (local lipolysis); assay type: in vivo, human; conditions: for Glucose in adipose tissue microdialysate, adjusted geometric mean ratio Day 57 vs Day 1 / Lactate in adipose tissue microdialysate, adjusted geometric mean ratio Day 57 vs Day 1 / Glycerol (free) in adipose tissue microdialysate, adjusted geometric mean ratio Day 57 vs Day 1 / interstitial glycerol levels at week 8 (subcutaneous adipose tissue lipolysis at rest): at rest; for Glycerol (free) in adipose tissue microdialysate, adjusted geometric mean ratio Day 57 vs Day 1: 8 weeks treatment; for interstitial glycerol levels at week 8 (subcutaneous adipose tissue lipolysis at rest): p=0.003 between groups
Description: Assessment of lipolysis at rest was performed on Day 1 prior to first dosage and on Day 57. Abdominal subcutaneous adipose tissue lipolysis was assessed by microdialysis in the fasting condition. […] Microdialysate samples for measurement of the analytes were collected at 30 minutes and 45 minutes in the flow calibration phase. Glycerol (an indicator of local lipolysis), glucose, and lactate concentrations were measured in the microdialysate, reflecting the interstitial concentrations in the adipose tissue. The ethanol ratio (ratio of ethanol concentration in dialysate to ethanol concentration in perfusate) was measured as an indicator of adipose tissue blood flow. For abdominal subcutaneous adipose tissue microdialysate data (ethanol ratio, dialysate lactate, dialysate glucose, and plasma glycerol, glycerol, NEFA, glucose, insulin, adrenalin, and noradrenalin) at rest, data was analyzed using repeated measures analysis on log transformed values with treatment, visit, time and treatment*visit*time interaction as fixed effects.

[6] = system: patients with mild-to-moderate hypertension and abdominal adiposity; assay: Safety assessments (adverse events); assay type: in vivo, human; conditions: for Discontinuations due to AEs: LCZ696 N = 50, amlodipine N = 48
Description: Safety assessments included adverse events (AEs) and serious adverse events (SAEs) and were conducted throughout the study by regular monitoring of hematology, blood chemistry and urine analysis as well as assessments of vital signs (BP and pulse measurements), ECG, physical condition and body weight. The pharmacodynamics (PD) analysis set included all patients with available PD data and no protocol deviations with relevant impact on PD data. The safety analysis set included all patients who received any of the study drugs.

[7] = system: patients with impaired glucose tolerance and cardiovascular disease or risk factors; conditions: valsartan for 5 years, along with lifestyle modification; cited from earlier work
[8] = LCZ696 400 mg QD or amlodipine 10 mg QD
[9] = LCZ696 400 mg QD or amlodipine 10 mg QD, listed as AML
[10] = baseline to Day 56, LCZ696 400 mg QD or amlodipine 10 mg QD, 8 weeks
[11] = 15 min exercise, p=0.014 between groups
[12] = 30 min exercise, p=0.010 between groups
[13] = safety analysis set, 8-week treatment

| Compound | Respiratory quotient (carbon dioxide to oxygen ratio), Day 57 adjusted mean (95% CI) [1] | Resting energy expenditure, Day 57 adjusted mean (95% CI) [1] | Glucose infusion rate by body weight (Mbw), Day 56, adjusted mean [2, 8] | Insulin sensitivity index, Day 56, adjusted mean [2, 8] | microdialysate glycerol at week 8 [3, 11] [µmol/L] | microdialysate glycerol at week 8 [3, 12] [µmol/L] | mean reduction in msDBP (mean seated diastolic blood pressure) [4] [mmHg] | mean reduction in msSBP (mean seated systolic blood pressure) [4] [mmHg] | Glucose in adipose tissue microdialysate, adjusted geometric mean ratio Day 57 vs Day 1 ([5]; 30 + 45 min combined, (95% CI)) | Lactate in adipose tissue microdialysate, adjusted geometric mean ratio Day 57 vs Day 1 ([5]; 30 + 45 min combined, (95% CI)) | Glycerol (free) in adipose tissue microdialysate, adjusted geometric mean ratio Day 57 vs Day 1 ([5]; 30 min time point, (95% CI)) | Glucose in adipose tissue microdialysate, adjusted geometric mean ratio Day 57 vs Day 1 ([5]; 30 min time point, (95% CI)) | Lactate in adipose tissue microdialysate, adjusted geometric mean ratio Day 57 vs Day 1 ([5]; 30 min time point, (95% CI)) | Glycerol (free) in adipose tissue microdialysate, adjusted geometric mean ratio Day 57 vs Day 1 ([5]; 45 min time point, (95% CI)) | Glucose in adipose tissue microdialysate, adjusted geometric mean ratio Day 57 vs Day 1 ([5]; 45 min time point, (95% CI)) | Lactate in adipose tissue microdialysate, adjusted geometric mean ratio Day 57 vs Day 1 ([5]; 45 min time point, (95% CI)) | interstitial glycerol levels at week 8 (subcutaneous adipose tissue lipolysis at rest) [5] [µmol/L] | Discontinuations due to AEs ([6]; 8-week treatment) | AEs suspected to be study drug related [6, 13] [%] | Peripheral edema reported [6, 13] | further results |
| --- | --- | --- | --- | --- | --- | --- | --- | --- | --- | --- | --- | --- | --- | --- | --- | --- | --- | --- | --- | --- | --- |
| CCOC(=O)C1=C(COCCN)NC(C)=C(C(=O)OC)C1c1ccccc1Cl (stereo not drawn) [Amlodipine, reference compound] | 0.77 (0.746; 0.804) | 1991.4 (1904.82; 2078.01) kcal | 3.87 mg/(min * kg) | 1.75 μg/kg * min/(mmol/L * pmol/L) | 128.8 | 149.19 | −10.0±7.8 | −12.4±14.7 | 0.99 (0.85; 1.16) | 0.90 (0.70; 1.16) | 0.87 (0.76; 0.99) | 1.00 (0.85; 1.16) | 0.91 (0.69; 1.19) | 0.85 (0.74; 0.98) | 0.98 (0.83; 1.16) | 0.90 (0.70; 1.16) | 63.99 | three | 46 | 16 patients | Glucose infusion rate by body weight (Mbw), Day 56, adjusted mean [2, 9]: 3.88 mg/(min * kg); Insulin sensitivity index, Day 56, adjusted mean [2, 9]: 1.76 μg/kg * min/(mmol/L * pmol/L); Glucose infusion rate by body weight (Mbw), adjusted mean change from baseline [2, 10]: 0.03 mg/(min * kg); Insulin sensitivity index, adjusted mean change from baseline [2, 10]: 0.065 μg/kg * min/(mmol/L * pmol/L); Insulin sensitivity index, adjusted mean change from baseline ([2]; baseline to Day 56, LCZ696 400 mg QD or amlodipine 10 mg QD, 8 weeks, listed as amlodipine): +0.065 μg/kg * min/(mmol/L * pmol/L); Glycerol (free) in adipose tissue microdialysate, adjusted geometric mean ratio Day 57 vs Day 1 ([5]; 30 + 45 min time points combined, (95% CI)): 0.86 (0.75; 0.97); overall incidence of AEs [6, 13]: 77.1% |
| CCCCC(=O)N(Cc1ccc(-c2ccccc2-c2nn[n-]n2)cc1)C(C(=O)[O-])C(C)C.CCOC(=O)C(C)CC(Cc1ccc(-c2ccccc2)cc1)NC(=O)CCC(=O)[O-].[Na+].[Na+].[Na+] [LCZ696, trisodium [3-((1S,3R)-1-biphenyl-4-ylmethyl-3-ethoxycarbonyl-1-butylcarbamoyl)propionate-(S)-3′-methyl-2′-(pentanoyl{2″-(tetrazol-5-ylate)biphenyl-4′-ylmethyl}amino)butyrate] hemipentahydrate] | 0.78 (0.760; 0.814) | 1960.1 (1879.42; 2040.90) kcal | 4.49 mg/(min * kg) | 1.88 μg/kg * min/(mmol/L * pmol/L) and 1.86 μg/kg * min/(mmol/L * pmol/L) | 153.1 | 187.63 | −12.4±9.1 | −21.0±16.1 | 1.02 (0.88; 1.18) | 0.84 (0.66; 1.06) | 1.02 (0.90; 1.16) | 1.03 (0.86; 1.20) | 0.81 (0.63; 1.04) | 1.07 (0.94; 1.22) | 1.01 (0.86; 1.18) | 0.86 (0.68; 1.09) | 80.53 | two | 24 | one | Metabolic clearance rate, Day 56, adjusted mean ([2]; Day 56, LCZ696 400 mg QD or amlodipine 10 mg QD): 79.07 mmol·min; Insulin sensitivity index, Treatment Difference (LCZ696-Amlodipine) ([2]; difference in adjusted mean change from baseline to Day 56 (95% CI), not statistically significant): 0.128 (−0.155; 0.410) μg/kg * min/(mmol/L * pmol/L); Glucose infusion rate by body weight (Mbw), Treatment Difference (LCZ696-Amlodipine) ([2]; difference in adjusted mean change from baseline to Day 56 (95% CI), p = 0.016): 0.61 (0.12; 1.11) mg/(min * kg); Metabolic clearance rate, Treatment Difference (LCZ696-Amlodipine) ([2]; difference in adjusted mean change from baseline to Day 56 (95% CI), p = 0.0312): 9.66 (0.89; 18.42) min * mmol; Glucose, Treatment differences, ratio of GMR (LCZ696 vs amlodipine) ([5]; 30 + 45 min combined, (95% CI)): 1.03 (0.83; 1.27); Lactate, Treatment differences, ratio of GMR (LCZ696 vs amlodipine) ([5]; 30 + 45 min combined, (95% CI)): 0.93 (0.65; 1.31); Glucose, Treatment differences, ratio of GMR (LCZ696 vs amlodipine) ([5]; 30 min time point, (95% CI)): 1.03 (0.82; 1.29); Glycerol (free), Treatment differences, ratio of GMR (LCZ696 vs amlodipine) ([5]; 30 min time point, (95% CI)): 1.18 (0.96; 1.43); Lactate, Treatment differences, ratio of GMR (LCZ696 vs amlodipine) ([5]; 30 min time point, (95% CI)): 0.89 (0.62; 1.29); Glucose, Treatment differences, ratio of GMR (LCZ696 vs amlodipine) ([5]; 45 min time point, (95% CI)): 1.03 (0.82; 1.29); Lactate, Treatment differences, ratio of GMR (LCZ696 vs amlodipine) ([5]; 45 min time point, (95% CI)): 0.96 (0.68; 1.36); change in ethanol ratio (indicator of adipose tissue blood flow), between treatment groups ([5]; LCZ696 vs amlodipine, any time point except 45 minute time point in the LCZ696 group (small, not considered relevant)): No significant differences; mild orthostatic hypertension reported ([6]; both resolved by the end of the study, suspected to be related to study drug): Two; Pruritus reported [6, 13]: five; overall incidence of AEs [6, 13]: 60.0% |
| CCCCC(=O)N(Cc1ccc(-c2ccccc2-c2nnn[nH]2)cc1)[C@H](C(=O)O)C(C)C [valsartan, S—N-valeryl-N-{[2′-(1H-tetrazole-5-yl)-biphenyl-4-yl]-methyl}-valine] |  |  |  |  |  |  |  |  |  |  |  |  |  |  |  |  |  |  |  |  | relative reduction in the incidence of diabetes [7]: 14% |
